The subject of series [1] is hypomyelinated optic nerves from Shiverer mice (shi^−/−). Description: Compound action potential (CAP) of dissected hypomyelinated optic nerve. It is filed as cell-based, mouse. The conditions noted are these: Mus musculus; hypomyelinated Shiverer optic nerve, 22 °C, Hill fit; read-out: half-maximal effective concentration (EC50) in enhancing the CAP. Here is the method: In order to determine if the drugs could also be effective in enhancing compound action potentials (CAP), the effects of these compounds on the CAP of hypomyelinated optic nerves from Shiverer mice (shi^−/−) and control mice (shi^+/−, shi^+/+) were tested. Shiverer mice lack compact myelin in the CNS due to a null mutation of the myelin basic protein gene (MBP).
optic nerves were dissected from 12-16 week old Shiverer (shi^−/−) and control mice (shi^+/− and shi^+/+). Mice were euthanized by CO2 overdose and the optic nerves were quickly dissected between the eyeball and the optic chiasm. The nerves were incubated for 30 min at 37° C. in oxygenated (95% O2, 5% CO2) aCSF solution (126 mM NaCl, 3 mM KCl, 2 mM MgSO4, 26 mM NaHCO3, 2 mMCaCl2, 10 mM dextrose, pH 7.5) before the experiment.
compound action potentials (CAP) from hypomyelinated nerves (Shiverer mice, shi^−/−) and myelinated nerves (litermate controls, shi^+/− and shi^+/+) were recorded using suction electrodes as described by Stys et al. Briefly, the dissected optic nerve was placed inside a chamber containing oxygenated (5% CO2, 95% O2) aCSF (300 μL) between two suction electrodes (stimulus and recording electrodes) forming a tight seal on each end. Two additional electrodes were placed in the bath for reference. A supramaximal pulse (250 mV, 20 μs) was applied at the stimulating end of the nerve. The resulting CAP was amplified from the recording electrode using a high impedance low-noise amplifier (EG&G Princeton Applied Research Corporation) and filtered and sampled at 10-100 kHz. […] After each measurement the chamber was washed for 5 min (flow 1 mL/min) with oxygenated aCSF. The study was conducted at 22.2±1.3° C. to allow for slower conduction and the temperature was monitored throughout the experiment. CAP recordings were acquired with a SBC6711 board (Innovative Integration) controlled by in-house written software. Analysis of the traces was done using an in-house software. The half-maximal effective concentration (EC50) for each drug was calculated by plotting the final over initial amplitude vs. concentration and fitted to the Hill equation using Origin.
The Hill equation used to fit the data from the voltage-clamp and the optic nerve experiments was as follows: y=y0+(yf−y0)*x^n/(k^n+x^n); where n refers to the Hill coefficient (typically 1±0.1) and k refers to EC50 or IC50. y0 and yf refers to the origin and final ordinate values and were fixed at 1±0.1 or 0±0.1 depending on the experiment. EC50=10^<log EC50>; where <log EC50>=average of log EC50 values from all experiments with the same drug. 95% C.I.=[Upper Limit . . . Lower Limit]; where U.L.=10^(log EC50+s.d.) and L.L.=10^(log EC50−s.d.). The half-life (t1/2) in the stability and pharmacokinetic experiments was calculated by fitting the data to the equation Ct=C0*exp(−k*t) where C0=initial concentration, Ct=concentration at time t, and k=ln 2/t1/2. Student t-test was used to compare results and P<0.05 was considered significant.

In series [2] the test system is C57Bl/6J mice. Description: In vivo effects (tremor, seizures) after intraperitoneal injection. The arrangement: species or system mouse. The conditions noted are these: i.p.; for Effect: N = 5. Here is the method: A consequence of excessive K^+ channel blockage is the advent of seizures. 4-AP is known to cause seizures in mice at high doses.
At high doses, 4-AP causes tremors, muscle spasms and seizures.
10-week-old female C57Bl/6J mice were given an intraperitoneal injection of the drug under investigation and monitored continuously for 4 h. After 4 h no signs of drug effects could be observed. At least 72 h passed between injections to the same mice.

Series [3] is described as follows: Stability in microsomes. It is filed as in vitro ADME, CD1 mouse. To be noted: mouse liver microsomes. Here is the method:
The stability of these drugs in mouse plasma and mouse liver microsomes was also tested. Liver microsomes contain large amounts of cytochrome P450 and can be used to estimate the metabolic stability of drugs.
study compounds were incubated at initial concentration of 1 μM with liver microsomes from CD1 mouse (0.04 mg/mL) in PBS in the presence or absence of enzyme cofactors (1.3 mM NADP^+, 3.3 mM MgCl2, 3.3 mM G6P and 1 U/ml G6PDH, 1 mM UDPGA and 4.7 μg/ml Alamethicin). After t=0, 20, 40 and 60 min, a sample was removed and the reaction was stopped by adding 1 volume of acetonitrile. The loss of compound was determined by LC-MS analysis comparing the amount of compound in the sample to the respective reference samples (without cofactors). To ensure that the assay is reliable, Propanolol and Verapamil were included as control compounds. […]
The Hill equation used to fit the data from the voltage-clamp and the optic nerve experiments was as follows: y=y0+(yf−y0)*x^n/(k^n+x^n); where n refers to the Hill coefficient (typically 1±0.1) and k refers to EC50 or IC50. y0 and yf refers to the origin and final ordinate values and were fixed at 1±0.1 or 0±0.1 depending on the experiment. […] The half-life (t1/2) in the stability and pharmacokinetic experiments was calculated by fitting the data to the equation Ct=C0*exp(−k*t) where C0=initial concentration, Ct=concentration at time t, and k=ln 2/t1/2. […]

In the case of `Nc1ccncc1F` [3-F-4-AP, 3-fluoro-4-aminopyridine], in series [1], the EC50 was found to be 96 µM. In addition, the Effect entry was “Mouse quiet” in series [2] (30 μmol/kg); “Mild tremor, mouse quiet” in series [2] (60 μmol/kg); “Severe tremors and seizures that start” in series [2] (90 μmol/kg). Further, the “duration of effect (tremors, seizures or jerks)” value in series [2] (90 μmol/kg) is about 30 min. For the same compound, in series [2] (90 μmol/kg), the “mice died of seizure” value is reported as 1 of 5 mice died of seizure. The “start of tremors and seizures post-injection” value in series [2] (90 μmol/kg (highest dose)) turned out to be 10 s. Moreover, the “in vivo potency compared with 4-AP” value in series [2] (mice) is “very similar potency to that of 4-AP”. The “times more stable than 4-AP in microsomes” value in series [3] was 2.7 times.

(Values after patent publication US10442767B2 (priority 2012, dated 2019).)
